In ChEMBL document CHEMBL1201862, “PubChem BioAssay data set” (2004):
Calls of active or inactive are those of the source.

What was measured:
Mucolipin-3 = Mucolipin-3 (Homo sapiens, UniProt Q8TDD5); test: Dose response cell-based high-throughput screening assay for agonists of the transient receptor potential channel ML3 (TRPML3). [Related pubchem assays: 1526, 1424, 1448 ]; format: functional
Ion channel NompC = Ion channel NompC (Danio rerio, UniProt Q7T1G6); test: Fluorescence counterscreen assay for TRPML3 agonists: dose response cell-based high-throughput screening assay to identify agonists of the transient receptor potential channel N1 (TRPN1). [Related pubchem assays: 1526, 1424, 1448 ]; format: functional
Chain of Ion channel NompC (Q7T1G6 whole entry): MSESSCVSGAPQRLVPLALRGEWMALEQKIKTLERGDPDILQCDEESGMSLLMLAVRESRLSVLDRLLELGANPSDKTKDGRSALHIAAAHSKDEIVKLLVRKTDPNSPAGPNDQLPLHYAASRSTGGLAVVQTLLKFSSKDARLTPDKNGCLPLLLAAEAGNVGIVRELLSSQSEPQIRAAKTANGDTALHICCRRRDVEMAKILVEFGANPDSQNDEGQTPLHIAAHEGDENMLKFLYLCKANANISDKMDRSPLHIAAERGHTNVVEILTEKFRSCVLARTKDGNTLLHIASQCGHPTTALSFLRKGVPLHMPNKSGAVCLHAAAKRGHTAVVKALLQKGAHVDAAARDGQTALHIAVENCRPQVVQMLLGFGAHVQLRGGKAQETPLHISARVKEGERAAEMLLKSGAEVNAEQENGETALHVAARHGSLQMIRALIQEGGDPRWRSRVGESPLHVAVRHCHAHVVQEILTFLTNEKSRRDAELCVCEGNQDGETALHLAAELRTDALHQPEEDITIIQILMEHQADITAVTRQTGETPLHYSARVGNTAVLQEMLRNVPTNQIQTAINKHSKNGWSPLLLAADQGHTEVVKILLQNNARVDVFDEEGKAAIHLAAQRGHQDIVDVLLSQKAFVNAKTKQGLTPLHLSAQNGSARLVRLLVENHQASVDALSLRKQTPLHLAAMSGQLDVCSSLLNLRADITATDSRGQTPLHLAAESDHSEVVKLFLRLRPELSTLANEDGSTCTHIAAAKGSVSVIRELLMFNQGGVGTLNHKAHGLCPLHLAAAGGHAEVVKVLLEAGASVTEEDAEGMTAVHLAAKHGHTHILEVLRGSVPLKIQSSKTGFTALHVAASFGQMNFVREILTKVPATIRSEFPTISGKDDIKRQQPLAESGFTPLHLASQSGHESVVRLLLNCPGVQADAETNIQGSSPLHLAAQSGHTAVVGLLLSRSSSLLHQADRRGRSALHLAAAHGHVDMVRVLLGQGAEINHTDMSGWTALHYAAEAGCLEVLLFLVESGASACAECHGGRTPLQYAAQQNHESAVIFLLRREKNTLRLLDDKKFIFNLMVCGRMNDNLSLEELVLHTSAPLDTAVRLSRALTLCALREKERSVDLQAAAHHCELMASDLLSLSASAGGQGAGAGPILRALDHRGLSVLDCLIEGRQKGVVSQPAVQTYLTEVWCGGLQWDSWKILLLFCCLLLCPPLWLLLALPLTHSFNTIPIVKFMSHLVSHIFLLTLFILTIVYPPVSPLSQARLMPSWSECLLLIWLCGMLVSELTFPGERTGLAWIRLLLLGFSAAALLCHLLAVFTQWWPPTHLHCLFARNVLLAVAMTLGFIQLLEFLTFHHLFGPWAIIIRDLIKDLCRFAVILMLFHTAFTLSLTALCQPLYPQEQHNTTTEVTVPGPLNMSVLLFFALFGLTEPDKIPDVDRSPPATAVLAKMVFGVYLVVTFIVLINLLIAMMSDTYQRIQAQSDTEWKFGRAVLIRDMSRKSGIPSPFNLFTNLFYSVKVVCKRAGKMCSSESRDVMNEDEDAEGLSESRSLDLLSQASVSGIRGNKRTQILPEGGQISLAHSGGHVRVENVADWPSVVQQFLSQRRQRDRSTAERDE

[1] = molecular target: Acyl-homoserine lactone acylase PvdQ (Pseudomonas aeruginosa (strain LESB58), UniProt Q9I194); test: P. aeruginosa PvdQ acylase inhibitors, dose response, biochemical, fluorescence, plate reader and imaging, cherry-picks (AID 493231)
Chain of Acyl-homoserine lactone acylase PvdQ (Q9I194 24-193 limits assumed): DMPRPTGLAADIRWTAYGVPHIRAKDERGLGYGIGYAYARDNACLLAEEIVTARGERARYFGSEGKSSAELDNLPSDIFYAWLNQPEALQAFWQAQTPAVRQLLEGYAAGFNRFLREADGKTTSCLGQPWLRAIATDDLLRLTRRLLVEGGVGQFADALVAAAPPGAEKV
Chain of Acyl-homoserine lactone acylase PvdQ (Q9I194 217-762 limits assumed): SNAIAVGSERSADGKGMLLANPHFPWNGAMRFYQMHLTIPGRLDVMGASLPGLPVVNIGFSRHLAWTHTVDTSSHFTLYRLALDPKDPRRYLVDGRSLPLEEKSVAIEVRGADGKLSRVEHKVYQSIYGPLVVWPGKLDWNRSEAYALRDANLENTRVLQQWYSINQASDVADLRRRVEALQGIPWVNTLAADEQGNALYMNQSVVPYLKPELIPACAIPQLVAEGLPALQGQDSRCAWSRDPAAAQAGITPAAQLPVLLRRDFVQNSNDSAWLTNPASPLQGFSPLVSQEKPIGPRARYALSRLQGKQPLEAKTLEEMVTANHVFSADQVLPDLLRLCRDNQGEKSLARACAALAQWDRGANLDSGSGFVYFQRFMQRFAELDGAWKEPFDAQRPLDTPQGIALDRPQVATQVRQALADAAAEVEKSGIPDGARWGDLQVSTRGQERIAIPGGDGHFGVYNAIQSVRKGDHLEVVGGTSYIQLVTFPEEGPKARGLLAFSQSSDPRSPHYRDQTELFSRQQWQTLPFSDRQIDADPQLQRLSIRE

[2] = molecular target: T1, Tyrosine-protein phosphatase non-receptor type 7 (Homo sapiens, UniProt P35236); test: inhibitors of human HePTP phosphatase, […], biochemical, absorbance, leukemia target (AID 521); format: functional
T1 sequence (P35236 whole entry): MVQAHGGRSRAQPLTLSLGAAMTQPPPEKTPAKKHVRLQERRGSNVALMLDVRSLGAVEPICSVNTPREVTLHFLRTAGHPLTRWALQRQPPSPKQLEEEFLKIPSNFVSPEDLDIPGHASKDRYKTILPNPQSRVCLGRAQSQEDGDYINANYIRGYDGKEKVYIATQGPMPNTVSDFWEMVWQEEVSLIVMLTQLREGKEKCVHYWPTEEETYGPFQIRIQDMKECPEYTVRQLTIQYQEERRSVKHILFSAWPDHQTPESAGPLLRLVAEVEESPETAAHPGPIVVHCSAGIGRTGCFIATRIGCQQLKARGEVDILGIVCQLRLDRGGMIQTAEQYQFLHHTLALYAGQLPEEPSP

[3] = Luminescence Cell-Based Dose Retest to Confirm Inhibitors of Cancer Stem Cells. [Related pubchem assays (depositor defined):AID2717, AID2721]; format: functional; conditions: Homo sapiens
[4] = cytotoxicity in HPDE-C7 cells, cell-based, fluorescence, HTS (AID 430); format: functional; conditions: Homo sapiens
[5] = NIH-3T3 fibroblast cytotoxicity, dose response, cytotoxicity control, cell-based, fluorescence, Alamar Blue, secondary assay (AID 2327); format: functional;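 also: NIH-3T3 mouse fibroblasts cultured with fluconazole at 8 µg/mL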
[6] = C. albicans growth with fluconazole, confirmation, fluorescence, retest (AID 2467); format: functional, cell-based
[7] = cytotoxicity in KRAS-transformed pancreatic duct cells, primary screen, cell-based, fluorescence, HTS (AID 431); format: functional; conditions: Homo sapiens;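 also: cell line used: HPDE-C7K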
Protein Tat = Protein Tat (Human immunodeficiency virus type 1 group M subtype B (isolate HXB2)(HIV-1), UniProt P04608); format: functional;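 also: tat binding to TAR RNA read out by fluorescence polarization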
Chain of Protein Tat (P04608 whole entry): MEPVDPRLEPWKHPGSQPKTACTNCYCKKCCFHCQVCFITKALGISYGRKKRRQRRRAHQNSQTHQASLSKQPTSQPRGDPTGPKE

SUMO-activating enzyme [8] = molecular target: T2, SUMO-activating enzyme (Homo sapiens, UniProt Q9UBT2); test: SUMOylation inhibitor hit validation, confirmation, SUMOylation inhibitor project, biochemical, AlphaScreen (AID 2018); format: functional
T2 sequence (Q9UBE0 whole entry): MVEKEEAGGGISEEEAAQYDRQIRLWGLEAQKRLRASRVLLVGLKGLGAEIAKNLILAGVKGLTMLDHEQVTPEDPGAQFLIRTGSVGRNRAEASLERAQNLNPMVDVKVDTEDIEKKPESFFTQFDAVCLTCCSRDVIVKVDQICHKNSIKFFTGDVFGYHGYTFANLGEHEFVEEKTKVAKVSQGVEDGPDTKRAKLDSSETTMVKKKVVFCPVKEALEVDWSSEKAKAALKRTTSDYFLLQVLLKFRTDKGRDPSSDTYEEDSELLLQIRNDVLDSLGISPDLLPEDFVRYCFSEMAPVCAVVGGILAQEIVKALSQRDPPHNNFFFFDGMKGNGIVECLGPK
T2 sequence (Q9UBT2 whole entry): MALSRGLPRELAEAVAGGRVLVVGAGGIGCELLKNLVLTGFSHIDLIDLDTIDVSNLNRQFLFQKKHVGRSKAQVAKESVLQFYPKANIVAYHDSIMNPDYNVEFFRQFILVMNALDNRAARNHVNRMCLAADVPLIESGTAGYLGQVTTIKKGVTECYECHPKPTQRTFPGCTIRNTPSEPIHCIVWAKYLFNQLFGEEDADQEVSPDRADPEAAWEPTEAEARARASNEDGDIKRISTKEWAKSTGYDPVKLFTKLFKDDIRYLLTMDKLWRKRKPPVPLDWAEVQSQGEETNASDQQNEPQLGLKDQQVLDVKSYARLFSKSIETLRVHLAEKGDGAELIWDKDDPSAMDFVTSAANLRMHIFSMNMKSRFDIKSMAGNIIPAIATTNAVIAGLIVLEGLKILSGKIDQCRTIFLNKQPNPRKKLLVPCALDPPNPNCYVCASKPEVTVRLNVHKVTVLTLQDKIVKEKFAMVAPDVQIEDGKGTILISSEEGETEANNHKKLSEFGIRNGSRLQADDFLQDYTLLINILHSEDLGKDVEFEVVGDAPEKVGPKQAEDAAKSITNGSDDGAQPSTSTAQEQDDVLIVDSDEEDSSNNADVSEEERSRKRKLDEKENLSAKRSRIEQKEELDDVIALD

[9] = molecular target: T3, Mannose-6-phosphate isomerase (Homo sapiens, UniProt P34949); test: human PMI inhibitors, high substrate, primary screen, biochemical, fluorescence intensity, high mannose 6-phosphate (AID 1220)
T3 sequence (P34949 whole entry): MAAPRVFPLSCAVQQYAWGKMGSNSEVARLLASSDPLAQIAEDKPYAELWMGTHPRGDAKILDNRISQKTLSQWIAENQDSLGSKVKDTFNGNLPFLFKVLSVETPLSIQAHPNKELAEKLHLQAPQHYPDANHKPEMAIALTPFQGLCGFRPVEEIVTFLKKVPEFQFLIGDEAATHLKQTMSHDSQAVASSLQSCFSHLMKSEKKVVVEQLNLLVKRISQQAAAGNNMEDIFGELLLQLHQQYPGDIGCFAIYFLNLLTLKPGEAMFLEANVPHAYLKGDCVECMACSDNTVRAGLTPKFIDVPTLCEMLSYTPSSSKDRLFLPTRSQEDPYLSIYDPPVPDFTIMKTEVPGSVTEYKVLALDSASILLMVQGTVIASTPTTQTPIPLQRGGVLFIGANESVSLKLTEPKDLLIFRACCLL

[10] = molecular target: DNA damage-inducible transcript 3 protein (Mus musculus, UniProt P35639); format: functional, Cricetulus griseus
[11] = molecular target: T3, Mannose-6-phosphate isomerase; test: inhibitors of human PMI, primary screen, biochemical, fluorescence intensity, coupled assay (AID 1209)
NADPH oxidase 1 = NADPH oxidase 1 (Homo sapiens, UniProt Q9Y5S8); format: functional, cell-based;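 also: Cell-based assay with luminescence read-out, IC50 derived from inhibitor dose-response curves; intracellular ROS from endogenous NOX1 in intact HT29 colon cancer cells; potency of inhibitors that lower the ROS luminescence signal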
Chain of NADPH oxidase 1 (Q9Y5S8 whole entry): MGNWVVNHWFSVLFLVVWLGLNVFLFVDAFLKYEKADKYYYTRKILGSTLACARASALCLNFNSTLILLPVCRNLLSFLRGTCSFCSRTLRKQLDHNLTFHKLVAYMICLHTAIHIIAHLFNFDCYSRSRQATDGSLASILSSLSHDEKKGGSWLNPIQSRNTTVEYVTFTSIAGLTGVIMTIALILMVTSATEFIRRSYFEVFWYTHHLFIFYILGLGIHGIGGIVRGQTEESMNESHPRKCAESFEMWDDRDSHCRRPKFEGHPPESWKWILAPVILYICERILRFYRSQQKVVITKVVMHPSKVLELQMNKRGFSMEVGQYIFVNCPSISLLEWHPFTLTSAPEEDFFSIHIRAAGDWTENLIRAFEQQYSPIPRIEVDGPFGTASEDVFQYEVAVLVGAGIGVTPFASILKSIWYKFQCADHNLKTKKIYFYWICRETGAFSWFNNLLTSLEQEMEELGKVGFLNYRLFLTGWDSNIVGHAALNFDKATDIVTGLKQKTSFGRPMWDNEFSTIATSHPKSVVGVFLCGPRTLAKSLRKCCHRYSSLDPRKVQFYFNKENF

Estrogen receptor beta [12] = molecular target: T4, Estrogen receptor beta (Homo sapiens, UniProt Q92731); test: ERβ–SRC-3 coactivator interaction inhibitors, confirmation, orthogonal assay, biochemical, ELISA, streptavidin-HRP readout (AID 1060)
Estrogen receptor beta [13] = molecular target: T4, Estrogen receptor beta
[14] = molecular target: T5, Aryl hydrocarbon receptor (Homo sapiens, UniProt P35869); test: Luminescence-based cell-based high throughput dose response assay for activators of the Aryl Hydrocarbon Receptor (AHR). [Related pubchem assays: 2796 (Primary screen (AHR activators in singlicate)), 2845 (Confirmation screen (AHR activators in triplicate)), 434939 (Counterscreen (PXR activators in triplicate)), 2804 (Summary (AHR activators))]; format: ADME
T5 sequence (P35869 whole entry): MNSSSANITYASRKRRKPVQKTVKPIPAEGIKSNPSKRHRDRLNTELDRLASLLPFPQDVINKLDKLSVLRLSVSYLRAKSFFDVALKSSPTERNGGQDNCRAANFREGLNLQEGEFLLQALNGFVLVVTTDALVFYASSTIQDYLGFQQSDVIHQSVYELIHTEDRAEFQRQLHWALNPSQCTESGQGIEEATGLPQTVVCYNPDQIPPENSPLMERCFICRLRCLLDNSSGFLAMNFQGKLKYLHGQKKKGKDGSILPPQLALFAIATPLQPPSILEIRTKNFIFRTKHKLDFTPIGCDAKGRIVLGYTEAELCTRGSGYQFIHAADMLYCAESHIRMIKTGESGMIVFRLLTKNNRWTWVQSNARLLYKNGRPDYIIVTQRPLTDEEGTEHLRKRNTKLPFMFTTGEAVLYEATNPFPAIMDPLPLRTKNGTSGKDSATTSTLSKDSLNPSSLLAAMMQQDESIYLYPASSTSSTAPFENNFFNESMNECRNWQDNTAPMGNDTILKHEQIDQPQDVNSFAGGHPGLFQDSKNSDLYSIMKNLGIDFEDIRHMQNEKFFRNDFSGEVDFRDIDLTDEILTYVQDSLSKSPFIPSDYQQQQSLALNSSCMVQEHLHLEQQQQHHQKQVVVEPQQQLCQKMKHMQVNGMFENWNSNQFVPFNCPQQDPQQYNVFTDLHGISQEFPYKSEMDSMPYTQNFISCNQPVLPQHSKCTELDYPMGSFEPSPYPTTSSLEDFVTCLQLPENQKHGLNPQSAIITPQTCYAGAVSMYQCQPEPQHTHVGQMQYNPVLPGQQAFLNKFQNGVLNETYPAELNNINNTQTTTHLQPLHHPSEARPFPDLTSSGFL

[15] = molecular target: T6, Corticotropin-releasing factor receptor 2/Corticotropin-releasing factor-binding protein (Homo sapiens, UniProt P24387+Q13324); test: Dose Response confirmation of uHTS hits for small molecule antagonists of the CRF-binding protein and CRF-R2 receptor complex.; format: functional; conditions: read-out: IC50_Mean
T6 sequence (Q13324 whole entry): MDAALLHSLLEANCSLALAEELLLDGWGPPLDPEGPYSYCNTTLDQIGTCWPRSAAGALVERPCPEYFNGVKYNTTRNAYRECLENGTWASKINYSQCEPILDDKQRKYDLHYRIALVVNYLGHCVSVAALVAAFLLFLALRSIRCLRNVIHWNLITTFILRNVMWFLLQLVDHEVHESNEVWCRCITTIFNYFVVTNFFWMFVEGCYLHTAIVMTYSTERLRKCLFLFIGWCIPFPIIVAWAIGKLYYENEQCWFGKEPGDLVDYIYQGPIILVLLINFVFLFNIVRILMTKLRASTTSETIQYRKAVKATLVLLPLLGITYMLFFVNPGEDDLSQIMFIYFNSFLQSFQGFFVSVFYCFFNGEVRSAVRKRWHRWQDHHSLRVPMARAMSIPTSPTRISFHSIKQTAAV
T6 sequence (P24387 whole entry): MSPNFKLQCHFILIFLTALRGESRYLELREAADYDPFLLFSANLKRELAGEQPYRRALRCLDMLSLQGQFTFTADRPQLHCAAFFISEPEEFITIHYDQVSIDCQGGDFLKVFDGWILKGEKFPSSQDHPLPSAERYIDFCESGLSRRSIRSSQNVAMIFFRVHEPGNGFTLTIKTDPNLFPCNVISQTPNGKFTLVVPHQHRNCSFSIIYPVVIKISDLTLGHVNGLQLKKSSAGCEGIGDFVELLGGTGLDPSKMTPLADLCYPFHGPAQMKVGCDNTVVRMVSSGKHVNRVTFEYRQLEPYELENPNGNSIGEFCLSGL

[16] = molecular target: T6, Corticotropin-releasing factor receptor 2/Corticotropin-releasing factor-binding protein; test: activators of CRF receptor 2 with binding protein – uHTS hits, confirmation (AID 602473); format: functional; conditions: read-out: EC50_Mean
Bcl-2-like protein 1 = Bcl-2-like protein 1 (Homo sapiens, UniProt Q07817); test: BCL-XL inhibitors, dose response, selectivity assay for MCL1 inhibitor project, biochemical, fluorescence polarization, 1536-well (AID 2218)
[17] = molecular target: T7, Induced myeloid leukemia cell differentiation protein Mcl-1 (Homo sapiens, UniProt Q07820); test: MCL1-BIM BH3 interaction inhibitors, dose response, biochemical, fluorescence polarization, BIM-BH3 peptide, 1536-well (AID 2217)
T7 sequence (Q07820 whole entry): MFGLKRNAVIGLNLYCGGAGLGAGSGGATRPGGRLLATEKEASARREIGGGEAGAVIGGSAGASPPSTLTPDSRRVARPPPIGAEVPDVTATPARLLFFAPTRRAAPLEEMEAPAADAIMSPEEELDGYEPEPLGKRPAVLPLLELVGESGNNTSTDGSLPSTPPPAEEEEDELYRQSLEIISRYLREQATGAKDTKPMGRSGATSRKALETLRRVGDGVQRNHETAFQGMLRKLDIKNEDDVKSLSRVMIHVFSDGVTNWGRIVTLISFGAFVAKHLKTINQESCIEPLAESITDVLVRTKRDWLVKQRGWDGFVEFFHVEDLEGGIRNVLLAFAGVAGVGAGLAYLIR

[18] = molecular target: Ras and Rab interactor 1/Tyrosine-protein kinase ABL1 (Homo sapiens, UniProt P00519+Q13671); format: functional;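 also: biochemical TR-FRET dose-response test measuring inhibition of binding between Rin1 and Abl proteins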
[19] = molecular target: T8, Small ubiquitin-related modifier 1 (Homo sapiens, UniProt P63165); test: inhibitors of SUMO1 peptide binding, dose response, biochemical, fluorescence polarization, uHTS hits (AID 624382); format: functional; conditions: read-out: IC50_Mean
T8 sequence (P63165 whole entry): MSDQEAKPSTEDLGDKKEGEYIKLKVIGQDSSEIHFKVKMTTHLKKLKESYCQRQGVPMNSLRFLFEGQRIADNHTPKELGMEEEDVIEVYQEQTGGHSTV

INS1 = test: beta cell apoptosis inhibitors, cytokine rescue, dose response, luminescence, retest (AID 449756); format: functional, cell-based; conditions: Rattus norvegicus;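 also: cell death triggered by IL-1 beta plus TNF-alpha plus IFN-gamma mixture; protective hits raise ATP signal compared with cytokine alone wells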
SUMO-activating enzyme [20] = molecular target: T2, SUMO-activating enzyme; test: inhibitors of in vitro SUMOylation cascade, primary screen, biochemical, HTRF, uHTS (AID 2006); format: protein-complex assay
[21] = molecular target: T9, Bifunctional protein GlmU (Mycobacterium tuberculosis, UniProt P9WMN3); test: Inhibitors of Mycobacterial Glucosamine-1-phosphate acetyl transferase (GlmU). Secondary screen.; design: species or system Mycobacterium tuberculosis H37Rv
T9 sequence (P9WMN3 whole entry): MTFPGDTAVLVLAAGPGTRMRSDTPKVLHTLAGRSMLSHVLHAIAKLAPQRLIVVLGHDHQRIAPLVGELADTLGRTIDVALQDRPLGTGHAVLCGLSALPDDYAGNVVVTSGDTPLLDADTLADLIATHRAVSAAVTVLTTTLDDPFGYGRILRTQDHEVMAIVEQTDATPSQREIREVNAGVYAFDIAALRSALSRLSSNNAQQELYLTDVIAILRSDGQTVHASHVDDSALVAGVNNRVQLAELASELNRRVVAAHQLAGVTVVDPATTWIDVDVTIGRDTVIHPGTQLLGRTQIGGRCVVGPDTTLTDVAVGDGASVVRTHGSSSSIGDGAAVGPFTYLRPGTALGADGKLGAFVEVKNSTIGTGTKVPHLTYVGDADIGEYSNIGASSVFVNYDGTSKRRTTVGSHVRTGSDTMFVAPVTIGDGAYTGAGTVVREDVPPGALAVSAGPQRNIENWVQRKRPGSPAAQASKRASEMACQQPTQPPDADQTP

[22] = molecular target: T8, Small ubiquitin-related modifier 1; test: inhibitors of SUMO1 partner interactions, dose response, biochemical, FRET (AID 624383); format: functional; conditions: read-out: IC50_Mean
[23] = molecular target: T7, Induced myeloid leukemia cell differentiation protein Mcl-1; format: functional

Chain of Mucolipin-3 (Q8TDD5 whole entry): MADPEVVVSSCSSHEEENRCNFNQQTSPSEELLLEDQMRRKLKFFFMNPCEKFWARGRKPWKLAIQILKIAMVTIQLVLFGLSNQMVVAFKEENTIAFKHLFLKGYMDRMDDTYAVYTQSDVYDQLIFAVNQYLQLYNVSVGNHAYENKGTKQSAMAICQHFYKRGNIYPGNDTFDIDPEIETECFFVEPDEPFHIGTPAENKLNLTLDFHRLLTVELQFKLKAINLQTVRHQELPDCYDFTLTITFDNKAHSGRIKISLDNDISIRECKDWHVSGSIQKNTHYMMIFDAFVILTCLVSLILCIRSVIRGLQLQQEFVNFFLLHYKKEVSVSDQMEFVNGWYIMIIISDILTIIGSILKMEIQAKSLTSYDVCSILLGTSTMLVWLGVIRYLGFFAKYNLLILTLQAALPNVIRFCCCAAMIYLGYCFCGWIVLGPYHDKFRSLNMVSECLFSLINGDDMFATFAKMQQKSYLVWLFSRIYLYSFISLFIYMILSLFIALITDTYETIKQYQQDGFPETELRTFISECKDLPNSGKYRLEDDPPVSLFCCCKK

Cc1ccc(S(=O)(=O)c2c(C)nn(C(C)(C)C)c2OC(=O)C(C)(C)C)cc1
EC50 (Mucolipin-3): 5.15 µM (active) | EC50 (Ion channel NompC): > 29.9 µM (not active)

N#CC(c1ccc(Cl)nn1)c1c(F)cccc1Cl (stereo unspecified)
AC50 [1]: 4.04 µM (active)

COn1cnnc1-c1ccccc1
IC50 [2]: > 100 µM (not active)

Cc1ccc(S(=O)(=O)c2c(C)nn(C(C)(C)C)c2OC(=O)c2ccc(Br)o2)cc1
AC50 [3]: 1.67 µM (active) | EC50 [4]: 4.41 µM (active) | EC50 [5]: > 160 µM (inconclusive) | EC50 [6]: 0.805 µM (active) | EC50 [7]: 4.56 µM (active)

CC1=Nc2nc3c(c4c(C#N)c(N5CCCCC5)nc(c24)N1)CC(=O)N3c1ccc(C(C)C)cc1.CN(C)C=O
IC50 (Protein Tat): > 100 µM (active) | IC50 (SUMO-activating enzyme [8]): 11.7 µM (active) | IC50 [9]: > 50 µM (not active) | Absolute IC50 (CHOP) [10]: 10 µM | IC50 [11]: > 50 µM (not active)

COc1cc([N+](=O)[O-])ccc1NC(=O)Nc1ccc(Oc2ccccc2)cc1
IC50 (NADPH oxidase 1): > 17 µM (not active)

COc1cc(CCC(=O)OCC(=O)Nc2ncc(Cl)cc2Cl)cc(OC)c1OC
IC50 (Estrogen receptor beta [12]): 102 µM (not active) | IC50 (Estrogen receptor beta [13]): 9.58 µM (active)

O=S(=O)(Oc1ccccc1N1CCCCC1)c1ccccc1
EC50 (Mucolipin-3): > 29.9 µM (not active) | EC50 (Ion channel NompC): > 29.9 µM (not active)

C=C(NNc1c(F)c(F)nc(F)c1F)c1ccncc1
IC50 (NADPH oxidase 1): > 17 µM (not active)

COc1ccc(C(=O)Nc2cc(OC)c(NC(=O)c3ccco3)cc2OC)cc1
EC50 [14]: 1.76 µM (active)

C=C(C)COc1ccc(-c2n[nH]cc2Oc2ccccc2OC)c(O)c1
IC50 [15]: 1.91 µM (active) | EC50 [16]: > 53 µM (inactive) | EC50 [4]: 12.3 µM (active) | EC50 [7]: 9.78 µM (active)

COC(=O)c1cc(O)cc(OC)c1Oc1cc(C)cc(O)c1C(=O)O [ASTERRIC ACID]
IC50 (SUMO-activating enzyme [8]): 7.42 µM (active) | IC50 (Bcl-2-like protein 1): 54.2 µM (not active) | IC50 [17]: 5.48 µM (active) | IC50 [18]: 20.7 µM (inactive) | IC50 [19]: > 66.6 µM (inactive) | AC50 (INS1): 8.13 µM (active) | IC50 (SUMO-activating enzyme [20]): 17.7 µM (active) | IC50 [21]: 82.7 µM (active) | IC50 [22]: 8.12 µM (active) | IC50 [23]: 2.42 µM (not active)

COc1ccc(C(C#N)c2ccc(Cl)nn2)cc1 (stereo unspecified)
AC50 [1]: 6.48 µM (active)
